US11369565B2, “Amino-pyrimidine skeletal muscle modulators” (Cytokinetics, Inc., priority 2010, dated 2022)

test system: rabbit skeletal myofibrils (approximately 90% fast fibers); assay: Activation of fast skeletal myofibrils (PUMA coupled-enzyme ATPase assay at pCa25); format: biochemical; conditions: concentration at which the compound increased the enzymatic activity by 40%; calcium at pCa25; PM12 buffer pH 6.8
Description: Preparation of fast skeletal myofibrils. Rabbit skeletal myofibrils were prepared based upon the method of Herrmann et al. (Biochem. 32(28):7255-7263(1993). Myofibrils were prepared from rabbit psoas muscle purchased from Pel-Freez Biologicals (Arkansas) within 2 days of ordering, stored on ice. Minced muscle was homogenized in 10 volumes of ice-cold “standard” buffer (50 mM Tris, pH 7.4, 0.1 M potassium acetate, 5 mM KCl, 2 mM DTT, 0.2 mM PMSF, 10 μM leupeptin, 5 μM pepstatin, and 0.5 mM sodium azide) containing 5 mM EDTA and 0.5% Triton X-100 using an Omni-Macro homogenizer. Myofibrils were recovered by low speed centrifugation (3000 rpm for 10 minutes) and washed 2 times in the Triton X-100 containing buffer to ensure removal of cellular membrane. Following the Triton washes, myofibrils were washed 3 times in “standard” buffer containing 2 mM magnesium acetate. A final wash in assay buffer (12 mM PIPES, pH 6.8, 60 mM KCl, 1 mM DTT) was performed and brought to 10% sucrose for flash freezing in liquid nitrogen and storage at −80° C.
Activation of Fast Skeletal Myofibrils. Fast fiber activators were identified by measuring the enzymatic activity of muscle myofibril preparations using the proprietary PUMA™ (see, e.g., U.S. Pat. Nos. 6,410,254, 6,743,599, 7,202,051, and 7,378,254) assay system. Myofibril preparations consisted of rabbit skeletal muscle (approximately 90% fast fibers) that had been mechanically homogenized and washed with a detergent (triton X-100) to remove cellular membranes. This preparation retained all of the sarcomeric components in a native conformation and the enzymatic activity was still regulated by calcium. Compounds were tested using a myofibril suspension and a level of calcium sufficient to increase enzymatic activity of the myofibrils to 25% of their maximal rate (termed pCa25). Enzymatic activity was tracked via a pyruvate kinase and lactate dehydrogenase-coupled enzyme system. This assay regenerates myosin-produced ADP into ATP by oxidizing NADH, producing an absorbance change at 340 nm. The buffering system was 12 mM Pipes, 2 mM MgCl2, 1 mM DTT at pH 6.8 (PM12 buffer).

| Mean AC1.4 | Structure (SMILES) |
| --- | --- |
| C (C=10-20 uM) | NC(=O)c1ccccc1-c1cnc(NC[C@]2(c3ncccc3F)C[C@H](F)C2)nc1 [2-[2-({[3-fluoro-1-(3-fluoro(2-pyridyl))cyclobutyl]methyl}amino)pyrimidin-5-yl]benzamide] |
| B (B=1-10 uM) | NC(=O)c1ccnc(-c2cnc(NC[C@]3(c4ncccc4F)C[C@H](F)C3)nc2)c1 [2-[2-({[3-fluoro-1-(3-fluoro(2-pyridyl))cyclobutyl]methyl}amino)pyrimidin-5-yl]pyridine-4-carboxamide] |
| B (B=1-10 uM) | N#Cc1ccnc(-c2cnc(NC[C@]3(c4ncccc4F)C[C@H](F)C3)nc2)n1 [2-[2-({[3-fluoro-1-(3-fluoro(2-pyridyl))cyclobutyl]methyl}amino)pyrimidin-5-yl]pyrimidine-4-carbonitrile] |
| B (B=1-10 uM) | NC(=O)c1ccnc(-c2cnc(NC[C@]3(c4ncccc4F)C[C@H](F)C3)nc2)n1 [2-[2-({[3-fluoro-1-(3-fluoro(2-pyridyl))cyclobutyl]methyl}amino)pyrimidin-5-yl]pyrimidine-4-carboxamide] |
| B (B=1-10 uM) | NC(=O)c1csc(-c2cnc(NCC3(c4ncccc4F)CCC3)nc2)n1 [2-[2-({[(3-fluoro-2-pyridyl)cyclobutyl]methyl}amino)pyrimidin-5-yl]-1,3-thiazole-4-carboxamide] |
| C (C=10-20 uM) | O=C(O)c1csc(-c2cnc(NCC3(c4ncccc4F)CCC3)nc2)n1 [2-[2-({[(3-fluoro-2-pyridyl)cyclobutyl]methyl}amino)pyrimidin-5-yl]-1,3-thiazole-4-carboxylic acid] |
| C (C=10-20 uM) | N#Cc1cnc(-c2cnc(NCC3(c4ncccc4F)CCC3)nc2)s1 [2-[2-({[(3-fluoro-2-pyridyl)cyclobutyl]methyl}amino)pyrimidin-5-yl]-1,3-thiazole-5-carbonitrile] |
| A (A=<1 uM) | NC(=O)c1cnc(-c2cnc(NCC3(c4ncccc4F)CCC3)nc2)s1 [2-[2-({[(3-fluoro-2-pyridyl)cyclobutyl]methyl}amino)pyrimidin-5-yl]-1,3-thiazole-5-carboxamide] |
| D (D=>20 uM) | CC(C)(Nc1ncc(-c2cnn(CC(N)=O)c2)cn1)c1ncccc1Cl [2-[4-(2-{[1-(3-chloro(2-pyridyl))-isopropyl]amino}pyrimidin-5-yl)pyrazolyl]acetamide] |
| D (D=>20 uM) | CC(C)(Nc1ncc(-c2cnn(CC(=O)O)c2)cn1)c1ncccc1Cl [2-[4-(2-{[1-(3-chloro(2-pyridyl))-isopropyl]amino}pyrimidin-5-yl)pyrazolyl]acetic acid] |
| D (D=>20 uM) | CC(C)(Nc1ncc(-c2cnn(CCO)c2)cn1)c1ncccc1Cl [2-[4-(2-{[1-(3-chloro(2-pyridyl))-isopropyl]amino}pyrimidin-5-yl)pyrazolyl]ethan-1-ol] |
| B (B=1-10 uM) | CC(C)(Nc1ncc(-c2cc(CC(N)=O)ccc2F)cn1)c1ncccc1F [2-[4-fluoro-3-(2-{[1-(3-fluoro(2-pyridyl))-isopropyl]amino}pyrimidin-5-yl)phenyl]acetamide] |

The remaining lines, values behind:

| Structure (SMILES) | Mean AC1.4 |
| --- | --- |
| CC(C)(CNc1ncc(-c2nccc(C(N)=O)n2)cn1)c1ncccc1F [2-(2-{[2-(3-fluoro(2-pyridyl))-2-methylpropyl]amino)pyrimidin-5-yl)pyrimidine-4-carboxamide] | C (C=10-20 uM) |
| CC(C)(CNc1ncc2c(n1)CN(C(=O)C(N)=O)CC2)c1ccc(F)cc1 [2-(2-{[2-(4-fluorophenyl)-2-methylpropyl]amino}(5,6,7,8-tetrahydropyridino[3,4-d]pyrimidin-7-yl))-2-oxoacetamide] | D (D=>20 uM) |
| CC(C)(CNc1ncc2c(n1)CCN(C(=O)C(N)=O)C2)c1ccc(F)cc1 [2-(2-{[2-(4-fluorophenyl)-2-methylpropyl]amino}(5,6,7,8-tetrahydropyridino[4,3-d]pyrimidin-6-yl))-2-oxoacetamide] | D (D=>20 uM) |
| CC(C)[C@@H](Nc1ncc(-c2ncc(C(N)=O)s2)cn1)c1ncccc1Cl [2-(2-{[(1R)-1-(3-chloro(2-pyridyl))-2-methylpropyl]amino}pyrimidin-5-yl)-1,3-thazole-5-carboxamide] | D (D=>20 uM) |
| CC(C)[C@@H](Nc1ncc(-c2ncc(C#N)s2)cn1)c1ncccc1Cl [2-(2-{[(1R)-1-(3-chloro(2-pyridyl))-2-methylpropyl]amino}pyrimidin-5-yl)-1,3-thiazole-5-carbonitrile] | D (D=>20 uM) |
| CC(C)[C@H](Nc1ncc(-c2ncc(C#N)s2)cn1)c1ncccc1Cl [2-(2-{[(1S)-1-(3-chloro(2-pyridyl))-2-methylpropyl]amino}pyrimidin-5-yl)-1,3-thiazole-5-carbonitrile] | D (D=>20 uM) |
| CC(C)[C@H](Nc1ncc(-c2ncc(C(N)=O)s2)cn1)c1ncccc1Cl [2-(2-{[(1S)-1-(3-chloro(2-pyridyl))-2-methylpropyl]amino}pyrimidin-5-yl)-1,3-thiazole-5-carboxamide] | D (D=>20 uM) |
| N#Cc1cnc(-c2cnc(NCC3(c4ccccn4)CCC3)nc2)s1 [2-(2-{[(2-pyridylcyclobutyl)methyl]amino}pyrimidin-5-yl)-1,3-thiazole-5-carbonitrile] | D (D=>20 uM) |
| NC(=O)c1cnc(-c2cnc(NCC3(c4ccccn4)CCC3)nc2)s1 [2-(2-{[(2-pyridylcyclobutyl)methyl]amino}pyrimidin-5-yl)-1,3-thlazole-5-carboxamide] | B (B=1-10 uM) |
| NC(=O)c1cnc(NCC2(c3ncccc3F)CCC2)nc1 [2-({[(3-fluoro-2-pyridyl)cyclobutyl]methyl}amino) pyrimidine-5-carboxamide] | D (D=>20 uM) |
| NC(=O)c1cc2cnc(NCC3(c4ncccc4F)CCC3)nc2s1 [2-({[(3-fluoro-2-pyridyl)cyclobutyl]methyl}amino) thiopheno[2,3-d]pyrimidine-6-carboxamide] | C (C=10-20 uM) |
| CC(C)(O)c1cnn(-c2cnc(NC(C)(C)c3ncccc3Cl)nc2)c1 [2-[1-(2-{[1-(3-chloro(2-pyridyl))-isopropyl]amino}pyrimidin-5-yl)pyrazol-4-yl]propan-2-ol] | D (D=>20 uM) |
| CC(C)(Nc1ncc(-c2nc(CC(N)=O)cs2)cn1)c1ncccc1F [2-[2-(2-{[1-(3-fluoro(2-pyridyl))-isopropyl]amino}pyrimidin-5-yl)-1,3-thiazol-4-yl]acetamide] | D (D=>20 uM) |
| CC(C)(Nc1ncc(-c2ncc(C(N)=O)s2)cn1)c1cccc(OC(F)F)n1 [2-[2-({1-[6-(difluoromethoxy)(2-pyridyl)]-isopropyl}amino)pyrimidin-5-yl]-1,3-thiazole-5-carboxamide] | A (A=<1 uM) |
| NC(=O)c1ccc(C(N)=O)c(-c2cnc(NC[C@]3(c4ncccc4F)C[C@H](F)C3)nc2)c1 [2-[2-({[3-fluoro-1-(3-fluoro(2-pyridyl))cyclobutyl)]methyl}amino) pyrimidin-5-yl]benzene-1,4-dicarboxamide] | B (B=1-10 uM) |
| N#Cc1ccnc(-c2cnc(NC[C@]3(c4ncccc4F)C[C@H](F)C3)nc2)c1 [2-[2-({[3-fluoro-1-(3-fluoro(2-pyridyl))cyclobutyl]methyl)amino)pyrimidin-5-yl]pyridine-4-carbonitrile] | B (B=1-10 uM) |
